Activity calls are given as the source filed them. No cut-off for these calls is given here.
What was measured:
[1] = Inhibition of bovine brain tubulin polymerization preincubated for 15 mins followed by GTP addition and measured after 20 mins by spectrophotometric analysis; design: species or system Bos taurus
Tubulin (Homo sapiens) [2] = biological target: T1, Tubulin (Homo sapiens) (UniProt P68371+Q9H4B7+P0DPH7+P68366+Q13509+Q71U36+P04350+Q3ZCM7+P07437+P68363+Q9BQE3+Q6PEY2+Q13885+Q9BVA1+Q9BUF5); assay: Inhibition of [3H]Colchicine binding to tubulin (unknown origin) at 5 uM incubated for 10 mins by scintillation counter relative to control; assay type: protein-complex assay
MCF7 = assay: Cytotoxicity against human MCF7 cells assessed as cell growth inhibition incubated for 96 hrs by SRB assay; assay type: functional
MDA-MB-231 [3] = assay: Cytotoxicity against human MDA-MB-231 cells assessed as cell growth inhibition incubated for 96 hrs by SRB assay; assay type: functional
Tubulin (Homo sapiens) [4] = biological target: T1, Tubulin (Homo sapiens); assay: Induction of microtubule disruption in human MDA-MB-231 cells assessed as reduction in fluorescence at 100 nM measured at <1.5 mins by ViaFluor 488 live cell microtubule and Hoechst 33342 staining based fluorescence microscopic analysis
Tubulin (Homo sapiens) [5] = biological target: T1, Tubulin (Homo sapiens); assay: Induction of microtubule disruption in human MDA-MB-231 cells at 100 nM measured at 30 mins by ViaFluor 488 live cell microtubule and Hoechst 33342 staining based fluorescence microscopic analysis
MDA-MB-231 [6] = assay: Induction of G2/M phase cell cycle arrest in human MDA-MB-231 cells at 200 to 500 nM incubated for 48 hrs by PI staining based flow cytometric analysis; assay type: functional; conditions: dose 200-500 nM
MDA-MB-231 [7] = assay: Inhibition of cell migration in human MDA-MB-231 cells at 50 nM incubated for 4 hrs by scratch assay; assay type: functional, cell-based
MDA-MB-231 [8] = assay: Inhibition of cell migration in human MDA-MB-231 cells at 50 nM incubated for 6 hrs by scratch assay; assay type: functional, cell-based
MDA-MB-231 [9] = assay: Inhibition of cell proliferation in human MDA-MB-231 cells at 50 nM incubated for 6 hrs by scratch assay; assay type: functional, cell-based
MDA-MB-231 [10] = assay: Inhibition of cell migration in human MDA-MB-231 cells at 50 nM incubated for 72 hrs by scratch assay; assay type: functional, cell-based
MDA-MB-231 [11] = assay: Induction of morphological changes in human MDA-MB-231 cells at 100 nM measured within 2 hrs by scratch assay; assay type: functional, cell-based
MDA-MB-231 [12] = assay: Induction of morphological changes in human MDA-MB-231 cells assessed as cell rounding at 100 nM measured after 20 hrs by scratch assay relative to control; assay type: functional
MDA-MB-231 [13] = assay: Inhibition of cell migration in human MDA-MB-231 cells at 100 nM incubated for 20 hrs by scratch assay; assay type: functional, cell-based
MDA-MB-231 [14] = assay: Inhibition of cell proliferation in human MDA-MB-231 cells at 100 nM incubated for 20 hrs by scratch assay; assay type: functional, cell-based
MDA-MB-231 [15] = assay: Inhibition of cell migration in human MDA-MB-231 cells at 100 nM incubated for 30 hrs by scratch assay; assay type: functional, cell-based
MDA-MB-231 [16] = assay: Induction of morphological changes in human MDA-MB-231 cells at 200 nM measured within 1 hrs by scratch assay; assay type: functional, cell-based
MDA-MB-231 [17] = assay: Induction of morphological changes in human MDA-MB-231 cells assessed as cell rounding at 200 nM measured after 14 hrs by scratch assay; assay type: functional
MDA-MB-231 [18] = assay: Inhibition of cell migration in human MDA-MB-231 cells at 200 nM by scratch assay; assay type: functional, cell-based
MDA-MB-231 [19] = assay: Inhibition of cell proliferation in human MDA-MB-231 cells at 200 nM by scratch assay; assay type: functional, cell-based
[20] = Aqueous solubility of compound; assay type: physicochemical; conditions: water
Mus musculus [21] = assay: Vascular disrupting activity in BALB/c mouse implanted with mouse orthotopic RENCA-luc assessed as reduction in bioluminescence imaging signal at 100 mg/kg administered as single dose and measured at 2.5 hrs by imaging analysis; assay type: functional, organism-based
Mus musculus [22] = assay: Vascular disrupting activity in BALB/c mouse implanted with mouse orthotopic RENCA-luc assessed as reduction in bioluminescence imaging signal at 150 mg/kg administered as single dose and measured at 2.5 hrs by imaging analysis relative to control; assay type: functional; design: scale not given: the % may be the effect or the level left
Mus musculus [23] = assay: Vascular disrupting activity in BALB/c mouse implanted with mouse orthotopic RENCA-luc assessed as hemorrhage at 150 mg/kg administered as single dose and measured after 2.5 hrs by H&E staining based analysis; assay type: functional, organism-based
Mus musculus [24] = assay: Vascular disrupting activity in BALB/c mouse implanted with mouse orthotopic RENCA-luc assessed as necrosis at 150 mg/kg administered as single dose and measured after 2.5 hrs by H&E staining based analysis; assay type: functional, organism-based
Tubulin (Homo sapiens) [25] = biological target: T1, Tubulin (Homo sapiens); assay: Inhibition of [3H]Colchicine binding to tubulin (unknown origin) at 0.5 uM incubated for 10 mins by scintillation counter relative to control; assay type: protein-complex assay

| Compound | IC50 [1] [nM] | inhibition (Tubulin (Homo sapiens) [2]) [%] | GI50 (MCF7) [nM] | GI50 (MDA-MB-231 [3]) [nM] | also measured |
| --- | --- | --- | --- | --- | --- |
| COc1cc(C(=O)c2c[nH]c3cc(-c4cccc(O)c4)ccc23)cc(OC)c1OC | 570 | 87 | 320 | 102 | Activity (Tubulin (Homo sapiens) [4]): Active; Activity (Tubulin (Homo sapiens) [5]): Active; Activity (MDA-MB-231 [6]): Active; inhibition (MDA-MB-231 [7]): Active; inhibition (MDA-MB-231 [8]): inactive; inhibition (MDA-MB-231 [9]): inactive; inhibition (MDA-MB-231 [10]): inactive; Activity (MDA-MB-231 [11]): Active; Activity (MDA-MB-231 [12]): <90%; inhibition (MDA-MB-231 [13]): Active; inhibition (MDA-MB-231 [14]): Active; inhibition (MDA-MB-231 [15]): Active; Activity (MDA-MB-231 [16]): Active; Activity (MDA-MB-231 [17]): >90%; inhibition (MDA-MB-231 [18]): Active; inhibition (MDA-MB-231 [19]): Active |
| COc1cc(C(=O)c2c[nH]c3cc(-c4ccccc4)ccc23)cc(OC)c1OC | 280 | 86 | 73 | 156 | – |
| COc1cc(C(=O)c2c[nH]c3cc(-c4cccc([N+](=O)[O-])c4)ccc23)cc(OC)c1OC | 650 | 41 | 28 | 110 | – |
| COc1cccc(-c2ccc3c(C(=O)c4cc(OC)c(OC)c(OC)c4)c[nH]c3c2)c1 | 370 | 87 | 23 | 36 | – |
| COc1ccc(/C=C\c2cc(OC)c(OC)c(OC)c2)cc1O [COMBRETASTATIN A4] | – | – | 9 | 3.5 | – |
| COc1ccc(-c2ccc3c(C(=O)c4cc(OC)c(OC)c(OC)c4)c[nH]c3c2)cc1 | 2500 | 9.1 | 98 | 1860 | – |
| CCc1ccc(-c2ccc3c(C(=O)c4cc(OC)c(O)c(OC)c4)c[nH]c3c2)cc1 | > 20000 | – | > 5000 | > 5000 | – |
| COc1cc(C(=O)c2c[nH]c3cc(-c4ccc(C(C)=O)s4)ccc23)cc(OC)c1OC | > 20000 | – | 73 | 3230 | – |
| COc1cc(C(=O)c2c[nH]c3cc(-c4ccc(C(F)(F)F)cc4)ccc23)cc(OC)c1OC | > 20000 | – | 1400 | 4060 | – |
| CCc1ccc(-c2ccc3c(C(=O)c4cc(OC)c(OC)c(OC)c4)c[nH]c3c2)cc1 | > 20000 | – | 1800 | 2220 | – |
| COc1cc(C(=O)c2c[nH]c3cc(-c4ccc(C)cc4)ccc23)cc(OC)c1OC | 1700 | 17 | 560 | 2010 | – |
| COc1cc(C(=O)c2c[nH]c3cc(-c4cc5ccccc5o4)ccc23)cc(OC)c1OC | > 20000 | – | 950 | 2070 | – |
| COc1ccc(-c2ccc3c(C(=O)c4cc(OC)c(OC)c(OC)c4)c[nH]c3c2)cc1O | > 20000 | – | 1500 | 828 | – |
| COc1cc(C(=O)c2c[nH]c3cc(-c4cccc(OP(=O)([O-])[O-])c4)ccc23)cc(OC)c1OC.[Na+].[Na+] | 9000 | – | 4200 | 694 | solubility [20]: ≤ 2400 µg/mL; Activity (Mus musculus [21]): Active; Activity (Mus musculus [22]): >90%; Activity (Mus musculus [23]): Active; Activity (Mus musculus [24]): Active |
| COc1cc(C(=O)c2c[nH]c3cc(-c4cccc(N)c4)ccc23)cc(OC)c1OC | 420 | 91 | 65 | 25 | inhibition (Tubulin (Homo sapiens) [25]): 51% |
